Measurements: patent US20040110848A1, “Method and kit for treating cancer” (priority 2002, published 2004)

How the values were obtained:
[1] = test system: human prostate cancer cells; details: human prostate cancer cells in culture; cited from earlier work
MMP-2 = test: Gelatin zymography of conditioned media, MMP-2; assay type: cell-based, human; details: for MMP-2 Count: perillyl alcohol 400 μM, 16 hr
Description: (§1) Since the effects of isoprenoids with or without genistein on prostate cancer metastasis had not been explored prior to the present invention, the effects of genistein, perillyl alcohol, and γ-tocotrienol were studied on MMP-9 and MMP-2 activity. MMP activity as described in the background has been linked in part to the Ras/ERK pathway and may also be involved in a second unidentified pathway that is ERK-independent. Therefore, we employed gelatin zymography to study effects of isoprenoids on MMP-9 and MMP-2 activation and secretion.
(§2) Referring now to FIG. 8. which depicts a gelatin zymogram showing the effects of perillyl alcohol (PA), genistein (Gen), or γ-tocotrienol (g-Toco) on MMP activity. The results of FIG. 8 are quantified in Table 2. Cells were grown in 100 mm culture plates to approximately 80% confluency. Prior to experimental treatments, cells were washed extensively in serum-free medium and then incubated for […] in serum-free media with Mito plus® serum supplement (Becton-Dickinson) in the absence or presence of isoprenoids. Conditioned media were then collected from PC-3 and DU145 cells that were incubated in the absence or presence of genistein (20 μM), perillyl alcohol (400 μM), or γ-tocotrienol (20 μM) for 16 hr and clarified by centrifugation. MMP activity in conditioned media was analyzed by mixing aliquots with SDS sample loading buffer without β-mercaptoethanol (non-reducing). Samples were electrophoresed on a 10% polyacrylamide (29:1) separating gel containing 0.1% (w/v) gelatin. Gels were incubated in developing buffer at 37° C. overnight. Enzyme activity was observed after staining with Coomassie Blue as clear bands on a blue background of undigested gelatin. Band density was then normalized to cell number prior to- and post-treatment (See FIG. 8).

MMP-9 = test: Gelatin zymography of conditioned media, MMP-9; assay type: cell-based, human; details: for MMP-9 Count: perillyl alcohol 400 μM, 16 hr
Description: as §1, §2

[2] = test system: androgen-responsive prostate tumor cell line LNCaP; details: cited from earlier work
4E-BP1 (Ser65) = test: Western blot of phospho-4E-BP1 (Ser65) in prostate cancer cells; assay type: cell-based, human; details: both prostate cell lines (PC-3, DU145); perillyl alcohol 400 μM 16 hr, genistein 40 μM 4 hr, LY 294002 10 μM 4 hr
Protocol: (§3) We treated PC-3, DU145, and Caco-2 (colon adenocarcinoma) cells with lovastatin (LVT), perillyl alcohol (PA), the P13 kinase inhibitor, LY294002 (LY), or genistein (Gen). PC-3, DU145, and Caco-2 cells were plated in RPMI plus 10% FBS and cells allowed to grow for 24 hr. Medium was supplemented with lovastatin (1 μM for 16 hr), perillyl alcohol (400 μM for 16 hr), genistein (40 μM for 4 hr), or LY 294002 (10 μM for 4 hr). Cells were lysed in RIPA buffer and protein extracts quantitated. Aliquots (100 μg) were electrophoresed and transferred to PVDF membranes. […] The eIF4E (FIG. 6, top panel) and 4E-BP1 (FIG. 6, middle panel) were detected using antibodies specific for eIF4E and phospho-4E-BP1 (Ser65). Specific proteins were detected by ECL using a Kodak Image Station.
(§4) Referring now to FIG. 6 which depicts a Western blot analysis of eIF4E, 4E-BP1 (Ser65) and Rab3A from various cells. […] The same blot was reprobed with phospho-4E-BP1 (Ser65). […] Rab3A levels were also compared in the highly metastatic PC-3 cells, DU145 and in Caco-2, which is considered to have low metastatic potential.

DU145 = test: In vitro collagen gel contraction assay, DU145; assay type: cell-based, human; details: Perillyl Alcohol 400 μM, Genistein 20 μM, control 3.0
Protocol: (§5) An in vitro collagen gel contraction assay was used to evaluate the effects of isoprenoids on biomechanical tumor cell matrix remodeling from various prostate cancer cell lines. Collagen gel suspensions for each tumor cell line were prepared by mixing a 250 μl suspension of 3×10^6 cells/ml with 250 μl of undiluted rat tail collagen type I (BD Biosciences). The resultant collagen gel suspensions were dripped onto 35 mm petri dishes containing 3 ml RPMI 1640 in 10% FBS to prevent adhesion of collagen to the dish. Collagen gel suspensions were allowed to polymerize for one hr. Isoprenoid treatments were added 24 hr after exchanging culture medium and were removed 24-48 hr post treatment.

[3] = test system: PC-3 prostate cancer cells; test: Membrane Invasion Culture System (MICS); assay type: cell-based, human; details: for percent invaded: PC-3, 24 hr, MATRIGEL coated membrane, Perillyl Alcohol 400 μM, Genistein 20 μM, γ-tocotrienol 20 μM, control 12.5%; for invasive ability of PC-3 cells: PC-3, MICS
Description: The Membrane Invasion Culture System (MICS) represents a direct measurement of intracellular reorganization and invasive capability of cancer cell lines. The MICS protocol was used to quantitate the effects of isoprenoid treatment on the invasive potential of PC-3 prostate cancer cells. Polycarbonate membranes (10 μm pores) were coated with a basement membrane matrix (MATRIGEL™, BD Biosciences) and placed inside MICS chambers. Both upper and lower chambers were filled with serum-free RPMI 1640 containing Mito plus™. Cells were seeded onto the upper wells at 1×10^5 cells/well. After 24 hr, cells that had invaded through the membrane were collected and counted. Invasion rates were calculated as the percent cells invading the matrix coated membrane compared to total number of cells seeded (Table 3).

PC-3 = test: In vitro collagen gel contraction assay, PC-3; assay type: cell-based, human; details: for Diameter (cm) of collagen gel: PC-3, Perillyl Alcohol 400 μM, Genistein 20 μM, control 2.0
Protocol: as §5
Table 4 summaries the effects on collagen gel ball diameters for both PC3 and DU145 as a result from being exposed to various isoprenoids during the in vitro collagen gel contraction assay.

HMG-CoA reductase [4] = test: Rate of HMG-CoA reductase synthesis (35S-labeled immunoprecipitable reductase) in lovastatin-treated C100 cells; assay type: cell-based, Syrian Hamster; details: for reductase synthesis lowered by: lovastatin treated C100 cells
Protocol: (§6) As discussed above, the end products of plant mevalonate metabolism, i.e., isoprenoids, suppress mammalian HMG-CoA reductase. To characterize the level at which plant-derived isoprenoids regulate reductase activity, lovastatin treated Syrian Hamster C100 cells were incubated with mevalonate or an isoprenoid (limonene, perillyl alcohol, or geraniol). These monoterpenes were selected because they are representative of isoprenoids found in a wide variety of plants, fruits and grains. C100 cells in which endogenous mevalonate biosynthesis is blocked with lovastatin have been a useful system to evaluate the effects of oxysterols and mevalonate-derived isoprenoids, either alone or in combination, on HMG-CoA reductase levels and rates of synthesis or degradation. […] The effects of the three isoprenoids on reductase degradation were also determined by measuring the half-life of HMG-CoA reductase.

HMG-CoA reductase [5] = test: HMG-CoA reductase degradation (half-life) in lovastatin-treated SV28 cells; assay type: cell-based
Protocol: as §6

HMG-CoA reductase mRNA = HMG-CoA reductase mRNA levels in lovastatin-treated C100 cells; assay type: cell-based, Syrian Hamster; details: for reductase mRNA level lowered by / impact on HMG-CoA reductase mRNA levels: lovastatin treated C100 cells
Protocol: as §6

Rab3A = test: Western blot of Rab3A; assay type: cell-based, human; details: DU145 cells; perillyl alcohol 400 μM 16 hr
Protocol: as §3, §4

[6] = DU145 conditioned media, genistein 20 μM (control 15.05), γ-tocotrienol 20 μM (control 5.5)
[7] = PC-3 conditioned media, genistein 20 μM (control 11.85), γ-tocotrienol 20 μM (control 18.14)
[8] = DU145 conditioned media, genistein 20 μM (control 30.71), γ-tocotrienol 20 μM (control 23.5)
[9] = PC-3 conditioned media, genistein 20 μM (control 46.95), γ-tocotrienol 20 μM (control 18.14)

Row | Structure (SMILES) | MMP-2 Count (MMP-2; [6]) | MMP-2 Count (MMP-2; [7]) | MMP-9 activity (MMP-9; DU145 cells) | MMP-9 Count (MMP-9; [8]) | MMP-9 activity (MMP-9; PC-3 cells) | MMP-9 Count (MMP-9; [9]) | percent invaded [3] [%] | invasive ability of PC-3 cells [3] | reductase synthesis lowered by (HMG-CoA reductase [4]) [%] | further results
1 | O=c1c(-c2ccc(O)cc2)coc2cc(O)cc(O)c12 [Genistein, genistein] | 23.54 | 4.25 | exhibited no similar effect | 47.64 | nearly ninety percent | 5.25 | 0 | inhibited the invasive ability of PC-3 cells, with genistein exhibiting the greatest effect | – | concentration inhibiting growth [1]: above 50 μmol; concentration shown to induce apoptosis [2]: above 20 μM; 4E-BP1 Ser65 phosphorylation (Western blot) (4E-BP1 (Ser65)): did not appear to affect Ser65 phosphorylation of the upper band but reduced phosphorylation of the lower of the two bands; Diameter (cm) of collagen gel (DU145): 3.2 cm; Diameter (cm) of collagen gel (PC-3): 3.5 cm
2 | CC(C)=CCC/C(C)=C/CO [Geraniol, geraniol] | – | – | – | – | – | – | – | – | 98 | effect on half-life of reductase (HMG-CoA reductase [5]): Neither limonene nor geraniol affected the half-life; reductase mRNA level lowered by (HMG-CoA reductase mRNA): 64%
3 | CC[C@H](C)C(=O)O[C@H]1C[C@@H](C)C=C2C=C[C@H](C)[C@H](CC[C@@H]3C[C@@H](O)CC(=O)O3)[C@H]21 [Lovastatin, lovastatin, reference compound] | – | – | – | – | – | – | – | – | – | Rate of Synthesis (reductase) (HMG-CoA reductase [4]; percentage (mean ± S.D.) of lovastatin-treated C100 cells set at 100%, 1 hr 35S labeling, mevalonate 10 mM, limonene 5 mM, perillyl alcohol 0.7 mM, geraniol 0.4 mM): 100 ± 15%; mRNA Levels (reductase) (HMG-CoA reductase mRNA; percentage of lovastatin-treated cells set at 100%, corrected to RP S17 mRNA, mevalonate 10 mM, limonene 5 mM, perillyl alcohol 0.7 mM, geraniol 0.4 mM): 100 ± 5%
4 | CC(O)(CCO)CC(=O)O (stereo not shown) [Mevalonate, mevalonate, reference compound] | – | – | – | – | – | – | – | – | 65 | HMG-CoA reductase half-life decreased by (HMG-CoA reductase [5]): approximately 60%; reductase mRNA level lowered by (HMG-CoA reductase mRNA): 65%
5 | C=C(C)[C@@H]1CC=C(CO)CC1 [Perillyl Alcohol, perillyl alcohol] | 10.63 | 6.73 | nearly extinguished all MMP-9 activity | 0.09 | exhibited no similar effect | 72.65 | 5 | inhibited the invasive ability | 89 | 4E-BP1 Ser65 phosphorylation (Western blot) (4E-BP1 (Ser65)): reduced Ser65 phosphorylation; Diameter (cm) of collagen gel (DU145): 3.75 cm; impact on HMG-CoA reductase mRNA levels (HMG-CoA reductase mRNA): neither limonene nor perillyl alcohol had a significant impact; Rab3A protein level (Western blot) (Rab3A): further reduce the levels of Rab3A protein; extracellular matrix remodeling of gel ball (PC-3; PC3 cells, FIG. 9): retards matrix remodeling; Diameter (cm) of collagen gel (PC-3): 3.2 cm
6 | C=C(C)[C@H]1CC=C(C)CC1 [limonene] | – | – | – | – | – | – | – | – | 70 | effect on half-life of reductase (HMG-CoA reductase [5]): Neither limonene nor geraniol affected the half-life; impact on HMG-CoA reductase mRNA levels (HMG-CoA reductase mRNA): neither limonene nor perillyl alcohol had a significant impact
7 | CC(C)=CCC/C(C)=C/CC/C(C)=C/CC[C@]1(C)CCc2cc(O)c(C)c(C)c2O1 [γ-tocotrienol] | −2.2 | 15.3 | modest monotonic decreases | 16.5 | modest monotonic decreases | 27.4 | 7 | inhibited the invasive ability | – | MMP-2 activity (MMP-2; DU145 cells): modest monotonic decreases; MMP-2 activity (MMP-2; PC-3 cells): modest monotonic decreases
